The text below walks through data of patent US20090270394A1, “CYCLYLAMINE DERIVATIVES AS CALCIUM CHANNEL BLOCKERS” (priority 2008, published 2009).

Assay [1] relates to T-type calcium channels. The conditions noted are these: cited from earlier work.
In assay [2] the target is T1, Human Cav2.2 channels (Homo sapiens, UniProt Q00975).
T1 construct: expressed in transfected cells
The experiment in a line: Fluorescent assay for Cav2.2 channels using potassium depolarization to initiate channel opening. Type of assay: cell-based. The conditions noted are these: for inhibition at 10 µM: 10 μM compound, read-out: Cav 2.2 Activity % Inh at 10 μM; for inhibition at 30 µM: 30 μM compound, read-out: Cav 2.2 Activity % Inh at 30 μM; for IC50: 30 mM K (block of open and inactivated channels), read-out: Cav 2.2 Activity IC50 at 30 mM K. In short, it runs like this:
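HEK293 cells stably expressing human Cav2.2 with alpha2-delta and beta subunits plus Kir2.3, dye-loaded, then held 30 min at 25° C. in 4, 12, 25 or 30 mM K+ pre-polarization buffer with compound.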

T1 sequence (Q00975 whole entry): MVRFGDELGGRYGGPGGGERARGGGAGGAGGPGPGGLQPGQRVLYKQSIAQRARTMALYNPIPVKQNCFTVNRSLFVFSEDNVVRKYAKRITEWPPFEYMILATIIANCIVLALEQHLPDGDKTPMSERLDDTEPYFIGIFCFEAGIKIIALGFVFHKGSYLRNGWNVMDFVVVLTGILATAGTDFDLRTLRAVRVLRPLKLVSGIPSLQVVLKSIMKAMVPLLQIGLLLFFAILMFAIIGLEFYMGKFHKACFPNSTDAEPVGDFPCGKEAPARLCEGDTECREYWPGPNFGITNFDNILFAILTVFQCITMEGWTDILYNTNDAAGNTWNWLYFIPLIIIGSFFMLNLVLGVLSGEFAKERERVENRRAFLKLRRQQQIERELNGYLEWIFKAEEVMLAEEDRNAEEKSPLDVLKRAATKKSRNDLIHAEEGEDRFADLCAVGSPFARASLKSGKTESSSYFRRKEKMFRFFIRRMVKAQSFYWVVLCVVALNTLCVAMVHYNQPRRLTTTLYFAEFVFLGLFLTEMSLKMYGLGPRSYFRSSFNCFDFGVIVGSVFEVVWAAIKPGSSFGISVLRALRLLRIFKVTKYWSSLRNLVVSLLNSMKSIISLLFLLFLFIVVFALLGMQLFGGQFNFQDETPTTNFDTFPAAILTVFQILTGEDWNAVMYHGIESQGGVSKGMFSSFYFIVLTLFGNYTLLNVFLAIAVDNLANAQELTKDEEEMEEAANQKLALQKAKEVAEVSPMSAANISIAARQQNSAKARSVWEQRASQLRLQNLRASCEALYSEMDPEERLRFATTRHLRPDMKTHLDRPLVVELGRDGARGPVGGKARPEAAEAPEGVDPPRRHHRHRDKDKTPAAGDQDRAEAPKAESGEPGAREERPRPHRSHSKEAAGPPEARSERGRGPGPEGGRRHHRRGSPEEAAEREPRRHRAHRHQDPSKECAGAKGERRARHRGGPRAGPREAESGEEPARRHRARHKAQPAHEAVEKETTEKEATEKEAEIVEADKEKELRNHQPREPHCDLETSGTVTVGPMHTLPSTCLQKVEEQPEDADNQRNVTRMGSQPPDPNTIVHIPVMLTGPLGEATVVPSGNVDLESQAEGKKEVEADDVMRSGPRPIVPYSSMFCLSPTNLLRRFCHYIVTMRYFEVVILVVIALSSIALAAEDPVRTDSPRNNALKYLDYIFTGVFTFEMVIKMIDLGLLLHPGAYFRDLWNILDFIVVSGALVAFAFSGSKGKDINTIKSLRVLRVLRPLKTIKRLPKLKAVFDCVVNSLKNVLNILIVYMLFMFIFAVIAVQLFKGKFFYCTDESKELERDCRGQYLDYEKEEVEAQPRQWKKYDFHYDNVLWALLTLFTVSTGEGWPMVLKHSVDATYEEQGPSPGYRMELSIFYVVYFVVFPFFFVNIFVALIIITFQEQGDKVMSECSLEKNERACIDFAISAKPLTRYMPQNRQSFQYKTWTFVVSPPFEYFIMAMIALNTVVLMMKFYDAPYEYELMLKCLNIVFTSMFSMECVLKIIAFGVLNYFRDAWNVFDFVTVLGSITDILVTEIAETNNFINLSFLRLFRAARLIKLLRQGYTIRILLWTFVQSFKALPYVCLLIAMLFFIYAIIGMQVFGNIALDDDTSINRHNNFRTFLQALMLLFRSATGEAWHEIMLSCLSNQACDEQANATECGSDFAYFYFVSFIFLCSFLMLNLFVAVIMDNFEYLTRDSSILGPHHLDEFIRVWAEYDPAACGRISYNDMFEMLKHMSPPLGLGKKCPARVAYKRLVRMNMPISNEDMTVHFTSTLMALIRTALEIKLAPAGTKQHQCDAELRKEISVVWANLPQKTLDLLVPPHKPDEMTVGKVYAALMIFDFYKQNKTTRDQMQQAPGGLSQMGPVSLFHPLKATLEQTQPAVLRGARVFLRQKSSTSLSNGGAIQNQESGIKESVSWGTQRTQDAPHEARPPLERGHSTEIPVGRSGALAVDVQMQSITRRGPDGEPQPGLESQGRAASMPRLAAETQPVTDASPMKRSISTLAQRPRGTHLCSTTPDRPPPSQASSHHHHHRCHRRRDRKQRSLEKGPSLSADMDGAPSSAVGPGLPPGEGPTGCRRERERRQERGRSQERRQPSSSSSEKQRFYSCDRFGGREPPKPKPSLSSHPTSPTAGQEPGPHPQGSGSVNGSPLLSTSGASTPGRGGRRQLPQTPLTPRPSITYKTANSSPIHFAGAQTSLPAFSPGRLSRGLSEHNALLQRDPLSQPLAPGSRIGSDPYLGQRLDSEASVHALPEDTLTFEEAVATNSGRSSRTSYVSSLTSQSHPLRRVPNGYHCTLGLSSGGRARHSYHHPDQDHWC
T1 sequence (P54289 25-1103 partner): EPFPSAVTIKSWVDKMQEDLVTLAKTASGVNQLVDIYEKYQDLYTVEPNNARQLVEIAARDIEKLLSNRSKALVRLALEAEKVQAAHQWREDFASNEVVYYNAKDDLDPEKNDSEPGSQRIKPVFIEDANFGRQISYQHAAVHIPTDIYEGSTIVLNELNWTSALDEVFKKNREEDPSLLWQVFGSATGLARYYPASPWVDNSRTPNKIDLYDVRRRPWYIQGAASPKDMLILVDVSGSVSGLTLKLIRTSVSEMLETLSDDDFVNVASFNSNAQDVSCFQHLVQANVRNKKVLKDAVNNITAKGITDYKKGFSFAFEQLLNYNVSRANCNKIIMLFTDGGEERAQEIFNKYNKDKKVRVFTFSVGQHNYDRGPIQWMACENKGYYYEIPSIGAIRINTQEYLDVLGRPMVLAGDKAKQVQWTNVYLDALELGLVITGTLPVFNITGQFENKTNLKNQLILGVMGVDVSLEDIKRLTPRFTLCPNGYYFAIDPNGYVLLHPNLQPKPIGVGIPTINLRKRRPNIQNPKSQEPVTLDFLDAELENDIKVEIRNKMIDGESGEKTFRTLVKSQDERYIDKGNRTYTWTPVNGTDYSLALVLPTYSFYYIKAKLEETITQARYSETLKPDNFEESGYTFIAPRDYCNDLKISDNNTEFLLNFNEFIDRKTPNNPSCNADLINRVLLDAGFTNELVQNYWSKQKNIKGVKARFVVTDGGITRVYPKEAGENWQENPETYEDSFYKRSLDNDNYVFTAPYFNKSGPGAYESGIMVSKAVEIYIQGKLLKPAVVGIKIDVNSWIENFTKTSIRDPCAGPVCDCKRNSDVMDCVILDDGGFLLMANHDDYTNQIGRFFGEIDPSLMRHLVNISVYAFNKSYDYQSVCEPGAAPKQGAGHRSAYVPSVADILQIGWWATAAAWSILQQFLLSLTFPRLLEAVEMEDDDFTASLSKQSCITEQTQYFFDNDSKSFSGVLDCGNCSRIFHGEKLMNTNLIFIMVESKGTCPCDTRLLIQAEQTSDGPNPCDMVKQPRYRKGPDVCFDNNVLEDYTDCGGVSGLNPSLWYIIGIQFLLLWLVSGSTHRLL
T1 sequence (P54284 whole entry partner): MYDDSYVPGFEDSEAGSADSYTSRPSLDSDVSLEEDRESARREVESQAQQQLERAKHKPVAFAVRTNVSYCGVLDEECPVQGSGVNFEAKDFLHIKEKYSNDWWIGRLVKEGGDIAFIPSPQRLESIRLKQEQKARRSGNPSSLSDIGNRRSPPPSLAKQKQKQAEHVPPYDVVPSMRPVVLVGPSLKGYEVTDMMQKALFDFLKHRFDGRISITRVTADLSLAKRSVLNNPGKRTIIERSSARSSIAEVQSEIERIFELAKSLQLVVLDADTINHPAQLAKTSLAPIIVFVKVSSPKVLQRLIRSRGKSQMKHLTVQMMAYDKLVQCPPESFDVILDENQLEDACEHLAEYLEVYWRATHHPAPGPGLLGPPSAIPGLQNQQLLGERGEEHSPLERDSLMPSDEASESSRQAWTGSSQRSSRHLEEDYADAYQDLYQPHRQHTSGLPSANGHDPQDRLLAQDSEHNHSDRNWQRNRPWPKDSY

Consider `COCC(=O)O[C@]1(CCN(C)CCCc2nc3ccccc3[nH]2)CCc2cc(F)ccc2[C@@H]1C(C)C` [Mibefradil], for which the “fold selective for T-type over L-type channels” value in assay [1] was 10-30 fold.
Take `CC(C)(C)c1cc(C(=O)NC2(C(=O)NCc3nccs3)CCCCC2)cc(C(C)(C)C)n1` [Compound 80, 2,6-di-tert-butyl-N-(1-(thiazol-2-ylmethylcarbamoyl)cyclohexyl)isonicotinamide]: in assay [2], the inhibition at 10 µM came out at 98.4%, the inhibition at 30 µM amounted to 104% and the IC50 came out at 106 nM.
Consider `COc1ccc(C(=O)NC2(C(=O)NCc3cc(C(C)(C)C)c(OC)c(C(C)(C)C)c3)CCCCC2)cc1` [Compound 74, N-(1-(3,5-di-tert-butyl-4-methoxybenzylcarbamoyl)cyclohexyl)-4-methoxybenzamide], for which, in assay [2], the inhibition at 10 µM was 98.9%, the inhibition at 30 µM worked out at 106% and the IC50 was determined as 55.8 nM.
On the same counts, the results for `Cc1cc(CNC(=O)C2(NC(=O)c3cc(C(C)(C)C)nc(C(C)(C)C)c3)CCCCC2)no1` [Compound 79, 2,6-di-tert-butyl-N-(1-((5-methylisoxazol-3-yl)methylcarbamoyl)cyclohexyl)isonicotinamide] are 97.8%, 101% and 43.3 nM.
On to `COc1c(C(C)(C)C)cc(C(=O)NC2(C(=O)NCc3ccc(N(C)C)cc3)CCCCC2)cc1C(C)(C)C` [Compound 84, 3,5-di-tert-butyl-N-(1-(4-(dimethylamino)benzylcarbamoyl)cyclohexyl)-4-methoxybenzamide], for which, in assay [2], the inhibition at 10 µM came out at 25.6% and the inhibition at 30 µM amounted to 53.5%.
`CC(C)(C)c1cc(C(=O)NC2(C(=O)NCc3ccccc3)CCCCC2)cc(C(C)(C)C)c1` [Compound 44, N-(1-(benzylcarbamoyl)cyclohexyl)-3,5-di-tert-butylbenzamide]: in assay [2], the inhibition at 10 µM was 92.5%, the inhibition at 30 µM turned out to be 97.3% and the IC50 amounted to 60.4 nM.
On the same counts, the results for `Cc1cnc(CNC(=O)C2(NC(=O)c3cc(C(C)(C)C)c(O)c(C(C)(C)C)c3)CC2)cn1` [Compound 3, 3,5-di-tert-butyl-4-hydroxy-N-(1-((5-methylpyrazin-2-yl)methylcarbamoyl)cyclopropyl)benzamide] are 89.8%, 98.8% and 1620 nM.
As for `Cc1cc(CNC(=O)C2(NC(=O)c3cc(C4CC4)cc(C4CC4)c3)CCCCC2)nn1C` [Compound 6, 3,5-dicyclopropyl-N-(1-((1,5-dimethyl-1H-pyrazol-3-yl)methylcarbamoyl)cyclohexyl)benzamide], in assay [2], the inhibition at 10 µM was determined as 54.7% and the inhibition at 30 µM was 66%.
`Cc1cnc(CNC(=O)C2(NC(=O)c3cc(C(C)(C)C)nc(C(C)(C)C)c3)CCCC2)cn1` [Compound 91, 2,6-di-tert-butyl-N-(1-((5-methylpyrazin-2-yl)methylcarbamoyl)cyclopentyl)isonicotinamide]: in assay [2], the inhibition at 10 µM worked out at 95.3%, the inhibition at 30 µM amounted to 96.1% and the IC50 was determined as 148 nM.
On the same counts, the results for `COc1ccc(CNC(=O)C2(NC(=O)c3cc(C(C)(C)C)c(OC)c(C(C)(C)C)c3)CC2)cc1` [Compound 110, 3,5-di-tert-butyl-4-methoxy-N-(1-(4-methoxybenzylcarbamoyl)cyclopropyl)benzamide] are 100%, 101% and 121 nM.
`CC(C)(C)NC(=O)C(C)(C)c1cc(C(=O)NC2(C(=O)NCc3cccc(C(F)(F)F)c3)CCCCC2)cc(C(C)(C)C(=O)NC(C)(C)C)c1` [Compound 76, 2,2′-(5-(1-(3-(trifluoromethyl)benzylcarbamoyl)cyclohexylcarbamoyl)-1,3-phenylene)bis(N-tert-butyl-2-methylpropanamide)]: in assay [2], the inhibition at 10 µM was 80.5% and the inhibition at 30 µM was determined as 87.8%.
Consider `CC(C)(C)c1cc(C(=O)NC2(C(=O)NCc3ccccc3)CCCCC2)cc(C(C)(C)C#N)c1` [Compound 70, N-(1-(benzylcarbamoyl)cyclohexyl)-3-tert-butyl-5-(2-cyanopropan-2-yl)benzamide], for which, in assay [2], the inhibition at 10 µM was determined as 89.8%, the inhibition at 30 µM worked out at 96.3% and the IC50 was determined as 27.4 nM.
The matching figures for `CC(C)(C)NC(=O)C(C)(C)c1ccc(C(=O)NC2(C(=O)NCc3ccccc3)CCCCC2)cc1` [Compound 125, N-(1-(benzylcarbamoyl)cyclohexyl)-4-(1-(tert-butylamino)-2-methyl-1-oxopropan-2-yl)benzamide]: 89.6%, 85.8% and 739 nM.
The matching figures for `CC(C)(C)NC(=O)C(C)(C)c1ccc(C(=O)NC2(C(=O)NCc3cccc(C(F)(F)F)c3)CCCCC2)cc1` [Compound 126, 4-(1-(tert-butylamino)-2-methyl-1-oxopropan-2-yl)-N-(1-(3-(trifluoromethyl)benzylcarbamoyl)cyclohexyl)benzamide]: 102%, 104% and 273 nM.
For the compound `CN(C)c1ccccc1CNC(=O)C1(NC(=O)c2cc(C(C)(C)C)nc(C(C)(C)C)c2)CCOCC1` [Compound 26, 2,6-di-tert-butyl-N-(4-(2-(dimethylamino)benzylcarbamoyl)tetrahydro-2H-pyran-4-yl)isonicotinamide], the inhibition at 10 µM in assay [2] was determined as 49%.
On to `CC(C)(C)c1cc(C(=O)NC2(C(=O)Nc3ccccn3)CC2)cc(C(C)(C)C)c1O` [Compound 4, 3,5-di-tert-butyl-4-hydroxy-N-(1-(pyridin-2-ylcarbamoyl)cyclopropyl)benzamide], for which, in assay [2], the inhibition at 10 µM is 68%, the inhibition at 30 µM came to 76% and the IC50 turned out to be 355 nM.
Regarding `CC(C)(C)c1cc(C(=O)NC2(C(=O)NCc3ccc(S(C)(=O)=O)cc3)CCCCC2)cc(C(C)(C)C)c1` [Compound 107, 3,5-di-tert-butyl-N-(1-(4-(methylsulfonyl)benzylcarbamoyl)cyclohexyl)benzamide], in assay [2], the IC50 came to 143 nM.
Turning to `CC(C)(C#N)c1cccc(C(=O)NC2(C(=O)NCc3ccccc3)CCCCC2)c1` [Compound 123, N-(1-(benzylcarbamoyl)cyclohexyl)-3-(2-cyanopropan-2-yl)benzamide], in assay [2], the inhibition at 10 µM is 53.5% and the inhibition at 30 µM came to 27.3%.
Turning to `COc1c(C(C)(C)C)cc(C(=O)NC2(C(=O)NCc3cnc(C)cn3)CCCCC2)cc1C(C)(C)C` [Compound 88, 3,5-di-tert-butyl-4-methoxy-N-(1-((5-methylpyrazin-2-yl)methylcarbamoyl)cyclohexyl)benzamide], in assay [2], the inhibition at 10 µM was determined as 96.3%, the inhibition at 30 µM stood at 96.7% and the IC50 was 14.2 nM.
On the same counts, the results for `CN(C)c1ccc(CNC(=O)C2(NC(=O)c3cc(C(C)(C)C)c(O)c(C(C)(C)C)c3)CCCCC2)cc1` [Compound 7, 3,5-di-tert-butyl-N-(1-(4-(dimethylamino)benzylcarbamoyl)cyclohexyl)-4-hydroxybenzamide] are 99.3%, 102% and 128 nM.
Turning to `CC(C)(C)c1cc(C(=O)NC2(C(=O)NCc3cccc(C(F)(F)F)c3)Cc3ccccc3C2)cc(C(C)(C)C)c1` [Compound 53, 2-(3,5-di-tert-butylbenzamido)-N-(3-(trifluoromethyl)benzyl)-2,3-dihydro-1H-indene-2-carboxamide], in assay [2], the inhibition at 10 µM is 56.3% and the inhibition at 30 µM is 74.3%.
